Source: publication PMC8459971, “Evaluation of the hepatotoxicity of the novel GPR40 (FFAR1) agonist CPL207280 in the rat and monkey” (PLoS ONE, 2021)
Where “and” joins values, the source holds several entries; their conditions need not be identical. Equal entries are not always repeated. Entries after “also recorded” stand apart in the source; their conditions may differ.

Experiments:
[1] = Metabolite profiling, human hepatocytes; format: in vitro ADME
Experimental: (§1) Suspensions of cryopreserved human, rat, and monkey hepatocytes were pooled from a minimum of three individuals. All cryopreserved hepatocytes were purchased from a commercial supplier. […] The cell density was 0.5 ×10^6 viable cells/mL. The final DMSO concentration during the incubation was 0.25%. Control incubations were performed in lysed cells to reveal any non-enzymatic degradation. Two control compounds were identified in each species. Samples (50 μL) were removed from the incubation mixture at 0, 10, 20, 40, 60, and 120 min and added to methanol containing an internal standard (100 μL) to stop the reaction. The samples were centrifuged (4000 x g at 4°C for 30 min) and the supernatants at each time point were pooled for analysis by LC MS/MS using Cyprotex generic methods. Following hepatocyte stability assays, the samples were utilized for metabolite profiling. […] Metabolites were characterized using a mass spectrometer comprising Waters Xevo QT of G2-S, Acquity Binary Solvent Manager, Acquity Column Manager, and 2777 Autosampler.

[2] = Stability in cryopreserved hepatocytes, rat; format: in vitro ADME; conditions: for Compound Remaining (% of 0 min): Hepatocyte Stability Rat, single replicates
Experimental: (§2) The final incubation volume was 500 μL. Two control compounds (verapamil and donepezil) were included for each microsomal species, along with the appropriate vehicle control. The reactions were terminated by transferring 50 μL of incubate to 100 μL methanol containing an internal standard (metoprolol) at appropriate time points (0, 10, 20, 40, 60, and 120 min for the test compound and 0, 5, 10, 20, 40, and 60 min for the control compounds). The termination plates were centrifuged at 4000 x g at 4°C for 30 min to precipitate the protein. The supernatants were then collected for analysis, and LC-MS/MS was used for detection purposes. The system consisted of an Acquity™ Binary Solvent Manager, Acquity™ 4-position heated column manager, 2777 Ultra High Pressure Autosampler, and a Xevo-TQ MS triple quadrupole mass spectrometer (Waters Ltd., Herts, UK). This process was carried out twice.

[3] = Metabolite profiling, monkey hepatocytes; format: in vitro ADME; conditions: 10 μM CPL207280, 60 min, ND = not detected
Experimental: as §1

[4] = Stability in cryopreserved hepatocytes, mouse; format: in vitro ADME; conditions: for Compound Remaining (% of 0 min): Hepatocyte Stability Mouse, single replicates
Experimental: as §2

[5] = Repeat-dose study in healthy Wistar Han rats, safety (14 and 56 days); format: in vivo, rat
[6] = Repeat-dose study in diabetic ZDF rats, serum ALT and AST; format: in vivo, rat; conditions: 15 and 45 mg/kg/day, 42 days
Excerpt: Male ZDF rats (n = 8) and ZL rats (n = 8) were aged 9 weeks and were housed 2–3 per cage within a small animal facility in accordance with the guidelines approved by the Association for Assessment and Accreditation of Laboratory Animal Care. […] All animals had ad libitum access to water during the entire study period. The animals were fed a diet of Purina Rodent LabDiet 5C08, equivalent to LabDiet 5008. Treatment-grouped rats (N = 8) underwent oral gavage with the test compound or vehicle at 10 mL/kg for 6 weeks. For fasting blood levels of ALT and AST after overnight fasting, blood was collected from the jugular vein or through a cardiac puncture (on the day of euthanasia, the last day of the study). Blood was collected in AXYGEN microtubes (MCT-150-C) for clinical blood chemistry measurements. Next, the sample was allowed to clot for a minimum of 30 min at room temperature and then centrifuged at 4°C and 4000 x g for 10 min. The resultant serum was transferred into three pre-labeled AXYGEN microtubes for blood chemistry analysis using the ADVIA 2400 chemistry system. Rats were euthanized by overdose of CO2 followed by decapitation.

[7] = cryopreserved hepatocytes (suspension), Rat (Sprague Dawley) hepatocytes, mean n = 2
[8] = cryopreserved hepatocytes (suspension), Mouse (CD) hepatocytes, mean n = 2

With `CC#C[C@@H](CC(=O)O)c1ccc(OCC(C)=C(C)C)cc1` [CPL207280] the “number of metabolites produced by human hepatocytes” value ([1]; human hepatocytes, 10 μM) was 12, the “human % of parent at 60 min” value ([1]; human hepatocytes, 10 μM CPL207280, 60 min, ND = not detected) was 8.49% and the “number of metabolites identified” value ([1]; in all species (humans, rats, mice, monkeys, dogs), hepatocytes, 10 μM) was 23. The “Acyl glucuronide presence in human hepatocytes” value ([1]; summary table) was “No”, the “Compound Remaining (% of 0 min)” value ([2]; 0 min) was 100 % of 0 min and the “Compound Remaining (% of 0 min)” value ([2]; 10 min) was 101 % of 0 min and 81.5 % of 0 min. The “Compound Remaining (% of 0 min)” value ([2]; 20 min) was 79.0 % of 0 min and 77.8 % of 0 min, the “Compound Remaining (% of 0 min)” value ([2]; 40 min) was 77.7 % of 0 min and 66.7 % of 0 min and the “Compound Remaining (% of 0 min)” value ([2]; 60 min) was 72.8 % of 0 min and 73.3 % of 0 min. The “Compound Remaining (% of 0 min)” value ([2]; 120 min) was 65.3 % of 0 min and 56.0 % of 0 min, the half-life at 3 μM [2, 7] was 3.1 h and the microsomal CLint at 3 μM [2, 7] was 7.51 µL/min/mg. For the same molecule, the “monkey % of parent at 60 min” value [3] was 7.25%, the “Compound Remaining (% of 0 min)” value ([4]; 0 min) was 100 % of 0 min and the “Compound Remaining (% of 0 min)” value ([4]; 10 min) was 92.6 % of 0 min and 92.7 % of 0 min. The “Compound Remaining (% of 0 min)” value ([4]; 20 min) was 92.0 % of 0 min and 89.0 % of 0 min, the “Compound Remaining (% of 0 min)” value ([4]; 40 min) was 86.8 % of 0 min and 80.9 % of 0 min and the “Compound Remaining (% of 0 min)” value ([4]; 60 min) was 79.1 % of 0 min and 85.2 % of 0 min. For the same molecule, the “Compound Remaining (% of 0 min)” value ([4]; 120 min) was 81.9 % of 0 min and 77.1 % of 0 min, the half-life at 3 μM [4, 8] was 6.73 h and the microsomal CLint at 3 μM [4, 8] was 3.46 µL/min/mg. For the same molecule, the MTD at 14 days ([5]; both sexes, Wistar Han, rat, in vivo, oral, rats, 14-day study, read-out: maximum tolerated dose (MTD)) was 600 mg/kg, the mortality ([5]; rats, 1200 mg/kg group, 14-day study) was “death of one subject occurred on day 7” and the ALT ([5]; rats, 1200 mg/kg, 14 days, fasted blood, significant increase from 34.2±8.5, in U/L (unit assumed)) was 60.0±8.0. For the same molecule, the ALP ([5]; rats, 1200 mg/kg, 14 days, fasted blood, significant increase from 86.3±30.2, in U/L (unit assumed)) was 136.1±55.3, the “ALT, AST and ALP” value ([5]; rats, 14-day study, doses up to 600 mg/kg) was “no ALT, AST, and ALP elevation” and the liver histopathology ([5]; rats, 14 days) was “no microscopic changes in the liver tissue”. For the same molecule, the liver histopathology ([5]; rats, 56 days) was “mild to moderate hypertrophy of centrilobular hepatocytes at doses ≥ 150 mg/kg/day; also recorded: minimal to mild centrilobular hepatocyte hypertrophy”, the “liver injury markers, TBA and T-BIL” value ([5]; rats, 56 days, 50, 150 and 500 mg/kg) was “none of the previously monitored markers nor TBA and T-BIL were altered” and the “reversibility of hepatocyte hypertrophy / liver weight increase” value ([5]; rats, 56 days, recovery period) was “reversible after 28 days”. For the same molecule, the “liver mass as a percentage of body weight” value ([5]; rats, all groups (300, 600, 1200 mg/kg/day), 14 days) was “dose-dependent enlargement of the liver”, the “Propensity to elevate liver enzyme damage markers” value ([5]; summary comparison CPL207280 vs TAK-875 (TAK-875: ref 25), sign spans both columns) was “<” and the “Propensity to elevate bile acids and bilirubin in plasma” value ([5]; summary table) was “No”. For the same molecule, the “ALT and AST levels vs vehicle-treated ZDF group” value [6] was “failed to alter the ALT and AST levels”.
